Earlier results in patent US12194065B2, “Methods and compositions to enhance metabolic detoxification systems” (Nature's Sunshine Products, Inc., priority 2017, dated 2025).

Columns and labels:
[1] = once produced through NOS
[2] = acute supplementation of 6 g, over 120 minutes, healthy individuals with normal plasma ADMA
eNOS = eNOS (Homo sapiens, UniProt P29474)
Sequence of eNOS (P29474 2-1203): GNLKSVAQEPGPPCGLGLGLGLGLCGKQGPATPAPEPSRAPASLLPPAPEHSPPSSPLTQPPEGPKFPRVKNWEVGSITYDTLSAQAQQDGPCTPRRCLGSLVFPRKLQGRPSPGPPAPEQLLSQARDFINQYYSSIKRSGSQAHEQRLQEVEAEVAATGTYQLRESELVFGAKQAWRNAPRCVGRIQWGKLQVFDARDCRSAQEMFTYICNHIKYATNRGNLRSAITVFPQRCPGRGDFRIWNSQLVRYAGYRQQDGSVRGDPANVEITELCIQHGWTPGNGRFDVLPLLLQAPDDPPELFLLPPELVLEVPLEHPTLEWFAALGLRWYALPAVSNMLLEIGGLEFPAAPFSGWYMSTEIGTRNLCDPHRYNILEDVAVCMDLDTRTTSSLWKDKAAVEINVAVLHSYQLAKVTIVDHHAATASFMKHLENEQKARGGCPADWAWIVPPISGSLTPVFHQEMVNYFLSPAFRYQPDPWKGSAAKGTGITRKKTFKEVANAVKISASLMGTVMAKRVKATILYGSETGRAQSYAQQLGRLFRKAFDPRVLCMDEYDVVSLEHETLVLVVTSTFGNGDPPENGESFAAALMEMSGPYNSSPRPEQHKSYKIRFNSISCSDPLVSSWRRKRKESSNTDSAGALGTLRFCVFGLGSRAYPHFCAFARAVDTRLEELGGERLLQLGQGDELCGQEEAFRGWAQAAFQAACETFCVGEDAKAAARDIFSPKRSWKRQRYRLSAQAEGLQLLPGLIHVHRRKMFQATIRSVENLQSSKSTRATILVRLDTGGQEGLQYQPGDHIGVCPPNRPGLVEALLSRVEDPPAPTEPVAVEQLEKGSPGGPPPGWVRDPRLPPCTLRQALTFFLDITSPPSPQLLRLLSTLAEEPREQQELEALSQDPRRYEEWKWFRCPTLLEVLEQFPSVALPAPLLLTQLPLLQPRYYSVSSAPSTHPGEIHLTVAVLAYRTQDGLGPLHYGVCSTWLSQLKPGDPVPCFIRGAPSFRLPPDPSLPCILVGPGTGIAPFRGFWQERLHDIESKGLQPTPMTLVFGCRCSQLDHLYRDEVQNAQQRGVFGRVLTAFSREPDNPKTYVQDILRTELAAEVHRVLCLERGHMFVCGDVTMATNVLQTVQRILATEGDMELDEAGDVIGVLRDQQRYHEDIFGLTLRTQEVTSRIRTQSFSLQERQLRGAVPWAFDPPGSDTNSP

| Structure (SMILES) | half-life [1] | plasma concentration of NOx [2] | concentration saturating eNOS (eNOS) |
| --- | --- | --- | --- |
| [N]=O [NO, Nitric oxide] | approximately 1 second |  |  |
| N=C(N)NCCC[C@H](N)C(=O)O [L-arginine] |  | does not increase | approximately 3 μmol arginine/L |
